Results from patent US20190375778A1, “ADENOSINE DERIVATIVES FOR USE IN THE TREATMENT OF CANCER” (NuCana plc, priority 2016, published 2019).

Experiments:
[1] = tested on: Murine leukemia L1210; experiment: Cell proliferation (Coulter count) assay, L1210; assay type: cell-based; conditions: Mus musculus, 48 h, read-out: absolute IC50, L1210
Excerpt: (§1) Lovo: cell line derived from a metastatic site in a patient with colon cancer MCF7: human oestrogen sensitive mammary epithelial cell line PC3: human prostate cancer cell line A549: cancerous lung tissue derived cells L1210: lymphoblast cell line derived from a mouse with lymphocytic leukaemia FM3A: mammary carcinoma murine cells CEM: human T-lymphoblasts, derived from the blood of a patient with acute lymphoblastic leukaemia HeLa: epithelial cells from a patient with cervical adenocarcinoma
(§2) Murine leukemia L1210, human T-lymphocyte CEM, and human cervix carcinoma HeLa cells were obtained from the American Type Culture Collection (ATCC) (Rockville, Md.). All cells were maintained in Dulbecco's modified Eagle's medium (DMEM) (Invitrogen, Carlsbad, Calif.) with 10% fetal bovine serum (FBS) (Biochrom AG, Berlin, Germany), 10 mM Hepes, and 1 mM sodiumpyruvate (Invitrogen). Cells were grown at 37° C. in a humidified incubator with a gas phase of 5% CO2. Monolayer cells (HeLa and […]) were seeded in 96-well microtiter plates (Nunc, Roskilde, Denmark) at 10 000 cells/well. After 24 h, an equal volume of fresh medium containing the test compounds was added. On day 5, cells were trypsinized and counted in a Coulter counter (Analis, Suarlee, Belgium). Suspension cells (L1210, CEM) were seeded in 96-well microtiter plates (Nunc) at 60 000 cells/well in the presence of a given amount of the test compounds. The cells were allowed to proliferate for 48 h (L1210) or 72 h (CEM) and were then counted in a Coulter counter. The 50% inhibitory concentration (IC50) was defined as the compound concentration required to reduce cell proliferation by 50%. The cytostatic activity of the compounds was determined after 3 days, as outlined above.

[2] = tested on: human T-lymphocyte CEM; experiment: Cell proliferation (Coulter count) assay, CEM; assay type: cell-based; conditions: 72 h, read-out: absolute IC50, CEM
Excerpt: as §1, §2

[3] = tested on: human cervix carcinoma HeLa cells; experiment: Cell proliferation (Coulter count) assay, HeLa; assay type: cell-based; conditions: 120 h, cell count on day 5, read-out: absolute IC50, HeLa
Excerpt: as §1, §2

[4] = tested on: CCRFCEM; experiment: CellTiterGlo viability assay, CCRFCEM; assay type: cell-based; conditions: Homo sapiens, CCRF-CEM, 72 h, read-out: IC50 CCRFCEM
Procedure: (§3) In vitro viability assay were performed to assess the effects of compounds on cell viability in selected cell lines over ˜72 hrs using the CellTiterGlo (CTG, Promega-G7573) assay. The tests were performed in duplicates with treatment of compounds at 9 points, 3.16 folds titration in 96 well plates over ˜72 hrs. The compound starting concentrations were 198 μM. Cell viability assay using CellTiterGlo in 96-well plate were performed. Compound treatment 72 hrs, standard growth conditions, duplicates. Compounds were dissolved to 40 mM with thawed […]. Compounds were serially diluted at 3.16 fold in thawed DMSO, and warmed to 37° C. before being dissolved in media (2 μl+200 μl). After compounds were dissolved in media, media containing compounds were warmed to 37° C. in incubator and then compounds in media were added to cell plates (50 μl+50 μl) in duplicates. The compounds' final concentrations were from […] to 19.9 nM. All compound solubilities were checked and recorded again, then the plates were transferred to CO2 tissue culture incubator immediately and incubated for 3 days. DMSO final concentration is 0.5%.

[5] = tested on: HEL92.1.7; experiment: CellTiterGlo viability assay, HEL92.1.7; assay type: cell-based; conditions: Homo sapiens, HEL 92.1.7, 72 h, read-out: IC50 HEL92.1.7
Procedure: as §3

[6] = tested on: KG-1; experiment: CellTiterGlo viability assay, KG-1; assay type: cell-based; conditions: Homo sapiens, KG-1, 72 h, read-out: IC50 KG-1
Procedure: as §3

[7] = tested on: K562; experiment: CellTiterGlo viability assay, K562; assay type: cell-based; conditions: Homo sapiens, K562, 72 h, read-out: IC50 K562
Procedure: as §3

[8] = tested on: NCI-H929; experiment: CellTiterGlo viability assay, NCI-H929; assay type: cell-based; conditions: Homo sapiens, NCI-H929, 72 h, read-out: IC50 NCI-H929
Procedure: as §3

[9] = tested on: MV4-11; experiment: CellTiterGlo viability assay, MV4-11; assay type: cell-based; conditions: Homo sapiens, MV4-11, 72 h, read-out: IC50 MV4-11
Procedure: as §3

[10] = tested on: RL; experiment: CellTiterGlo viability assay, RL; assay type: cell-based; conditions: Homo sapiens, RL, 72 h, read-out: IC50 RL
Procedure: as §3

[11] = tested on: RPMI-8226; experiment: CellTiterGlo viability assay, RPMI-8226; assay type: cell-based, Human; conditions: Homo sapiens, RPMI-8226, 72 h, read-out: IC50 RPMI-8226
Procedure: as §3

[12] = tested on: HL-60; experiment: CellTiterGlo viability assay, HL-60; assay type: cell-based; conditions: Homo sapiens, HL-60, 72 h, read-out: IC50 HL-60
Procedure: as §3

Row | SMILES | IC50 [1] [µM] | IC50 [2] [µM] | IC50 [3] [µM] | IC50 [4] [µM] | IC50 [5] [µM] | IC50 [6] [µM] | IC50 [7] [µM] | IC50 [8] [µM] | IC50 [9] [µM] | IC50 [10] [µM] | IC50 [11] [µM] | IC50 [12] [µM]
1 | Nc1ncnc2c1nc(Cl)n2[C@@H]1O[C@H](COP(=O)(N[C@@H](Cc2ccccc2)C(=O)OCc2ccccc2)Oc2cccc3ccccc23)C(O)C1O (stereo partly drawn) [P, 5′-([(Benzyloxy-L-phenylalanin-N-yl)-naphth-1-yl]-phosphatyl) 8-chloroadenosine] | 5 to 15 | 0.1 to 5 | 0.1 to 5 | 5 to 15 | 0.1 to 5 | 5 to 15 | 0.1 to 5 | 0.1 to 5 | 0.1 to 5 | 5 to 15 | 0.1 to 5 | 0.1 to 5
2 | CCCCCOC(=O)CNP(=O)(OC[C@H]1O[C@@H](n2c(Cl)nc3c(N)ncnc32)C(O)C1O)Oc1cccc2ccccc12 (stereo partly drawn) [O, 5′-([(Pent-1-yloxy-glycin-N-yl)-naphth-1-yl]-phosphatyl) 8-chloroadenosine] | 0.1 to 5 | 0.1 to 5 | 0.1 to 5 | 15 to 100 | 15 to 100 | 15 to 100 | 5 to 15 | 15 to 100 | 0.1 to 5 | 15 to 100 | 5 to 15 | 15 to 100
3 | CCOC(=O)[C@H](C)NP(=O)(OC[C@H]1O[C@@H](n2c(Cl)nc3c(N)ncnc32)C(O)C1O)Oc1cccc2ccccc12 (stereo partly drawn) [F, 5′-([(Ethyloxy-L-alanin-N-yl)-naphth-1-yl]-phosphatyl) 8-chloroadenosine] | 15 to 100 | 5 to 15 | 0.1 to 5 |  |  |  |  |  |  |  |  | 
4 | C[C@H](NP(=O)(N[C@@H](C)C(=O)OCc1ccccc1)OC[C@H]1O[C@@H](n2c(Cl)nc3c(N)ncnc32)C(O)C1O)C(=O)OCc1ccccc1 (stereo partly drawn) [AB, 8-Chloroadenosine 5′-O-bis(benzyloxy-L-alanin-N-yl) phosphate] | 5 to 15 | 0.1 to 5 | 0.1 to 5 |  |  |  |  |  |  |  |  | 
5 | Nc1ncnc2c1nc(Cl)n2[C@@H]1O[C@H](COP(=O)(NCC(=O)OC2CCCCC2)Oc2cccc3ccccc23)C(O)C1O (stereo partly drawn) [M, 5′-([(Cyclohexyloxy-glycin-N-yl)-naphth-1-yl]-phosphatyl) 8-chloroadenosine] | 15 to 100 | 15 to 100 | 15 to 100 |  |  |  |  |  |  |  |  | 
6 | CC(C)C[C@H](NP(=O)(OC[C@H]1O[C@@H](n2c(Cl)nc3c(N)ncnc32)C(O)C1O)Oc1cccc2ccccc12)C(=O)OC1CCCCC1 (stereo partly drawn) [J, 5′-([(Cyclohexyloxy-L-leucin-N-yl)-naphth-1-yl]-phosphatyl) 8-chloroadenosine] | 5 to 15 | 5 to 15 | 5 to 15 |  |  |  |  |  |  |  |  | 
7 | CCOC(=O)[C@H](CC(C)C)NP(=O)(OC[C@H]1O[C@@H](n2c(Cl)nc3c(N)ncnc32)C(O)C1O)Oc1cccc2ccccc12 (stereo partly drawn) [K, 5′-([(ethyloxy-L-leucin-N-yl)-naphth-1-yl]-phosphatyl) 8-chloroadenosine] | 15 to 100 | 5 to 15 | 0.1 to 5 |  |  |  |  |  |  |  |  | 
